# From the supplement of paper PMC10307832
# How the values were obtained:
# Assay in all cases: relative viability (nuclei count vs DMSO), 5 days (fraction); higher = more cells survive
# DM3189 + OSI-027 = compound: C1CN(CCN1)C2=CC=C(C=C2)C3=CN4C(=C(C=N4)C5=CC=NC6=CC=CC=C56)N=C3 [DM3189] + COc1cccc2cc(-c3nc([C@H]4CC[C@H](C(=O)O)CC4)n4ncnc(N)c34)[nH]c12 [OSI-027] (partner 0.5 µM)
# Procedure, shortened: (§1)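 Medians of duplicate plates are given as relative viability. That measure is the nuclei count in treated wells divided by the count in vehicle wells. Counts were taken on 4× images of lung cancer cell lines in 1536-well plates, 5 days after pin-tool dosing the day after seeding with one drug alone or a fixed anchor-drug dose plus five library-drug doses (not always all listed) in √10 steps.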
# DM3189 + Lapatinib = compound: C1CN(CCN1)C2=CC=C(C=C2)C3=CN4C(=C(C=N4)C5=CC=NC6=CC=CC=C56)N=C3 [DM3189] + CS(=O)(=O)CCNCc1ccc(-c2ccc3ncnc(Nc4ccc(OCc5cccc(F)c5)c(Cl)c4)c3c2)o1 [Lapatinib] (partner 2 µM)
# Procedure, shortened: as §1
# DM3189 + Pictilisib = compound: C1CN(CCN1)C2=CC=C(C=C2)C3=CN4C(=C(C=N4)C5=CC=NC6=CC=CC=C56)N=C3 [DM3189] + CS(=O)(=O)N1CCN(Cc2cc3nc(-c4cccc5[nH]ncc45)nc(N4CCOCC4)c3s2)CC1 [Pictilisib] (partner 1 µM)
# Procedure, shortened: as §1
# DM3189 + Bortezomib = compound: C1CN(CCN1)C2=CC=C(C=C2)C3=CN4C(=C(C=N4)C5=CC=NC6=CC=CC=C56)N=C3 [DM3189] + CC(C)C[C@H](NC(=O)[C@H](Cc1ccccc1)NC(=O)c1cnccn1)B(O)O [Bortezomib] (partner 0.002 µM)
# Procedure, shortened: as §1
# DM3189 + Navitoclax = compound: C1CN(CCN1)C2=CC=C(C=C2)C3=CN4C(=C(C=N4)C5=CC=NC6=CC=CC=C56)N=C3 [DM3189] + CC1(C)CCC(c2ccc(Cl)cc2)=C(CN2CCN(c3ccc(C(=O)NS(=O)(=O)c4ccc(N[C@H](CCN5CCOCC5)CSc5ccccc5)c(S(=O)(=O)C(F)(F)F)c4)cc3)CC2)C1 [Navitoclax] (partner 0.5 µM)
# Procedure, shortened: as §1
Cell Line,relative viability (DM3189 + OSI-027; first compound 0.08 µM),relative viability (DM3189 + OSI-027; first compound 0.253 µM),relative viability (DM3189 + OSI-027; first compound 0.8 µM),relative viability (DM3189 + OSI-027; first compound 2.53 µM),relative viability (DM3189 + Lapatinib; first compound 0.08 µM),relative viability (DM3189 + Lapatinib; first compound 0.253 µM),relative viability (DM3189 + Lapatinib; first compound 0.8 µM),relative viability (DM3189 + Lapatinib; first compound 2.53 µM),relative viability (DM3189 + Pictilisib; first compound 0.08 µM),relative viability (DM3189 + Pictilisib; first compound 0.253 µM),relative viability (DM3189 + Pictilisib; first compound 0.8 µM),relative viability (DM3189 + Pictilisib; first compound 2.53 µM),relative viability (DM3189 + Bortezomib; first compound 0.08 µM),relative viability (DM3189 + Bortezomib; first compound 0.253 µM),relative viability (DM3189 + Bortezomib; first compound 0.8 µM),relative viability (DM3189 + Bortezomib; first compound 2.53 µM),relative viability (DM3189 + Navitoclax; first compound 0.08 µM),relative viability (DM3189 + Navitoclax; first compound 0.253 µM),relative viability (DM3189 + Navitoclax; first compound 0.8 µM),relative viability (DM3189 + Navitoclax; first compound 2.53 µM)
PC-14,1.05,0.837,0.76,0.946,0.319,0.284,0.34,0.377,0.782,0.739,0.673,0.538,0.832,0.885,0.832,0.812,1.04,1.03,1,1.08
EMC-BAC-2,0.403,0.341,0.359,0.418,0.894,0.888,0.859,0.934,0.587,0.538,0.507,0.54,1.12,1.01,0.956,1.1,1.13,1.14,1.13,1.02
LU99A,0.293,0.299,,0.308,1.02,0.879,,0.987,0.32,0.263,,0.316,1.23,1.01,,1.04,0.828,0.787,,0.83
RERF-LC-KJ,0.666,0.59,0.586,0.601,0.965,0.954,0.843,0.854,0.585,0.694,0.602,0.562,1.61,1.21,1.15,1.26,0.997,1.35,0.81,1.09
NCI-H647,0.724,0.579,0.585,0.528,1.36,0.823,0.622,0.463,0.381,0.334,,0.381,1.08,0.871,0.667,0.35,1.26,0.959,0.767,0.657
LCLC-97TM1,0.563,0.304,0.397,0.396,0.744,0.488,0.416,0.755,0.186,0.151,0.159,0.13,1.26,0.573,0.531,0.366,0.291,0.243,0.39,0.519
NCI-H2009,0.684,0.577,0.553,0.579,1.13,0.888,0.684,0.916,1,0.725,0.572,0.75,1.24,1.04,0.782,0.984,1.17,1.19,1.06,1.23
HARA,0.713,0.525,0.292,0.539,0.93,0.625,0.6,0.856,0.645,0.362,0.288,0.35,1.28,1.11,1.04,1.2,1.13,1.09,1.08,1.21
NCI-H520,0.281,0.232,0.237,0.232,0.902,0.679,0.644,0.42,0.28,0.234,0.219,0.19,0.503,0.345,0.429,0.368,1,0.728,0.752,0.628
NCI-H1650,0.715,0.658,0.468,0.524,0.838,0.806,0.71,0.777,0.773,0.582,0.526,0.477,0.248,0.163,0.228,0.189,1.24,1.11,1.21,1.13
EKVX,0.769,0.511,0.729,0.623,0.201,0.183,0.228,0.245,0.483,0.429,0.413,0.446,1.1,1.01,1.04,1.2,0.816,0.899,0.9,1.07
NCI-H1755,0.732,0.688,0.574,0.786,1.07,0.937,0.811,0.936,0.51,0.417,0.334,0.399,0.95,0.878,0.807,0.505,0.926,0.904,0.701,0.965
NCI-H1792,0.585,0.703,0.661,0.839,0.973,0.919,0.674,0.431,0.228,0.248,0.165,0.271,0.838,0.926,0.852,0.656,0.584,0.601,0.443,0.23
NCI-H2126,0.79,0.704,0.67,0.645,0.869,0.775,0.673,0.732,0.544,0.53,0.465,0.478,1.19,1.18,1.19,1.12,0.827,0.873,0.756,0.861
H3255,0.875,0.541,0.625,0.611,0.259,0.267,0.224,0.277,0.585,0.511,0.446,0.529,1.46,0.812,0.708,0.801,0.685,0.577,0.559,0.5
NCI-H2347,0.486,0.337,0.455,0.335,1.09,0.866,0.703,0.97,0.493,0.452,0.569,0.517,1.08,0.91,0.944,1.17,0.861,0.819,0.743,0.763
